Data taken from patent US10085973B2, “Pharmaceutical composition containing a compound having a thrombopoietin receptor agonistic activity” (Shionogi & Co., Ltd., priority 2012, dated 2018).
In brackets after ≈: the same amount, converted by molar mass.

How the values were obtained:
platelet count = test: Estimated PD model parameters for chronic liver disease patients (for Monte-Carlo simulation); set-up: species or system human
Description: Based on the PK/PD model in healthy adults as described in (Test Example 1), model parameters in chronic liver disease patients were estimated on the basis of the following assumptions.
Based on the pre-defined level of platelet count expected in chronic liver disease patients, the average and range of PLT0 were set to 3×10^4/μL and 2×10^4 to 4.9×10^4/μL, respectively.
It was reported that platelets destruction in chronic liver disease patients was promoted (see Reference 1) and the survival period of platelets was about ⅔ of that of healthy adults (see References 2 and 3). Therefore, kdeg, a parameter representing the elimination rate of platelets, was set to the value which was about 1.5 times of the value of healthy adults, i.e. 0.009 hr^−1. In addition, based on the relationship that the production rate of platelets is equal to the elimination rate of platelets at baseline, kpr, a parameter representing the production rate of platelets, was calculated from the formula: PLT0×kdeg. As a result, kpr was 0.027×10^4/μL/hr which was lower than the value in healthy adults (0.116×10^4/μL/hr). This estimated value matched the previous report that the production rate of platelets was decreased in chronic liver disease patients (see Reference 1).
It was assumed that a parameter km representing the maturation rate of platelets in chronic liver disease patients is similar to that in healthy adults. Therefore, the estimated value in healthy adults was used as km.
When the plasma concentration is sufficiently lower than EC50 (EC50>>C), the drug efficacy of lusutrombopag can be approximated by Emax/EC50. It was assumed based on the clinical data of eltrombopag, a drug having the same efficacy (see References 4 and 5) that Emax/EC50 in this trial was about 3 times of the value of healthy adults. […] Meanwhile, it was assumed that r in the patients was similar to that in healthy adults. Therefore, the value in healthy adults was used as r.
A reduction in the production rate of platelets with an increase in platelets, i.e. the negative feedback phenomenon, is represented by the formula (PLT0/PLT)^γ. […] Therefore, the negative feedback phenomenon was not taken into account in the present simulation.
As inter-individual variability of the respective PD parameters, the values in healthy adults were used.
The intra-individual variability of plasma concentration was not taken into account in the present simulation. As the intra-individual variability of a platelet count, the value in healthy adults was used.

[1] = test system: patients with thrombocytopenia caused by chronic liver disease; test: Example 2 Test Example 1: repeated oral administration before percutaneous liver ablation with discontinuation criteria; type: in vivo, human
Description: To patients with thrombocytopenia caused by chronic liver disease, lusutrombopag as a pretreatment of percutaneous liver ablation was orally administered repeatedly for 7 days while applying the discontinuation criteria designed in Example 1 and profile of the platelet count was studied. In the present Example, the term “ablation” refers to radiofrequency ablation.
Patients with thrombocytopenia caused by chronic liver disease who are scheduled to undergo percutaneous liver ablation.
Patients who meet the following inclusion criteria are included. • 1) Age: 20 years of age or older (at the time of signing informed consent); • 2) Patients who themselves can give a consent in writing; • 3) Patients who have a complication or a history of chronic liver disease caused by hepatitis B or C virus; • 4) Patients who are scheduled to undergo percutaneous liver ablation for primary liver cancer; • 5) Patients having a platelet count which is less than 5×10^4/μL at the time of screening; • 6) Patients whose ECOG* Performance Status of Grade is 0 to 1; and • 7) Patients who can practice contraception from entry to the end of observation. (Exclusion Criteria)
Patients who meet the following criteria are excluded. • 1) Patients who underwent splenectomy; • 2) Patients who have a complication presenting thrombocytopenia; • 3) Patients who underwent liver transplant; • 4) Degree of hepatic disorder classified as the Child-Pugh class of C; • 5) Hepatic encephalopathy uncontrolled by medicaments; • 6) Ascites uncontrolled by medicaments; • 7) Patients who have a complication of malignant tumor other than primary liver cancer; • 8) Patients who have a complication or a history of thrombosis or thrombotic disease; • 9) Patients who have absence of hepatopetal blood flow in the portal vein; • 10) Patients who have a complication or a history of disease with hemorrhage risk; • 11) Patients who received a therapeutic agent that affects a platelet count or underwent a therapy that affects a platelet count within 90 days before registry; • 12) Patients who received a blood product (excluding erythrocyte product) within 14 days before registry; or • 13) Patients who previously received a TPO receptor agonist. (Drugs which are Prohibited, Limited or Allowed for Coadministration During the Trial)
In each allocated group, lusutrombopag is orally administered repeatedly once daily for 7 days. After patients are monitored on day 8, they undergo percutaneous liver ablation before day 13 from initiation of administration. They are monitored until about day 30 after initiation of administration.
Lusutrombopag is orally administered repeatedly once daily for 7 days. On day 1, the drug is administered at the time of visit. On day 3 to day 7 (day 5 to day 7 for the group of 2.0 mg administration), the drug shall be administered after checking the platelet count measured on the same day. Administration of lusutrombopag shall be discontinued when the platelet count reaches to the following criteria (administration discontinuating criteria) in a clinical examination after administration of the investigational drug.
Administration discontinuating criteria: when the platelet count has increased by 2×10^4/μL or more from the platelet count before initiation of administration and the platelet count has reached to 5×10^4/μL or higher.
As the platelet count before initiation of administration, the platelet count determined within 7 days before initiation of administration was used.
Daily dose was any one of 2.0, 2.5, 3.0 and 4.0 mg of lusutrombopag.
Proportion of patients who have a platelet count on day 8 after initiation of administration that increased by 2×10^4/μL or more from the platelet count before initiation of administration and reached to 5×10^4/μL or higher. […]

CCCCCCO[C@@H](C)c1cccc(-c2csc(NC(=O)c3cc(Cl)c(/C=C(\C)C(=O)O)c(Cl)c3)n2)c1OC [lusutrombopag, (E)-3-[2,6-dichloro-4-[4-[3-[(S)-1-hexyloxyethyl]-2-methoxyphenyl]-thiazol-2-ylcarbamoyl]-phenyl]-2-methylacrylic acid]
kdeg, mean (platelet count; about 1.5 times of healthy adults): 2.5e-06 s⁻¹ | EC50, mean (platelet count; set by assumption): 0.18 µg/mL (≈ 0.304 µM) | Emax, mean (platelet count; set by assumption): 29.3 | km, mean (platelet count; value of healthy adults): 0.0394 h⁻¹ | r, mean (platelet count; value of healthy adults): 2.03 | Endpoint 2: Number of patients who had a platelet count during the trial that increased by 2 × 10^4/μL or more from the count before initiation of administration and reached to 5 × 10^4/μL or higher ([1]; 2.0 mg once daily, n = 12): 9 | Number of patients to whom administration was discontinued according to the administration discontinuating criteria ([1]; 2.0 mg once daily, n = 12): 3 | Number of patients who received platelet transfusion ([1]; 2.0 mg once daily, n = 12): 2 | Endpoint 2: Number of patients who had a platelet count during the trial that increased by 2 × 10^4/μL or more from the count before initiation of administration and reached to 5 × 10^4/μL or higher ([1]; 2.5 mg once daily, n = 6): 4 | Number of patients to whom administration was discontinued according to the administration discontinuating criteria ([1]; 2.5 mg once daily, n = 6): 3 | Number of patients who received platelet transfusion ([1]; 2.5 mg once daily, n = 6): 1 | Endpoint 2: Number of patients who had a platelet count during the trial that increased by 2 × 10^4/μL or more from the count before initiation of administration and reached to 5 × 10^4/μL or higher ([1]; 3.0 mg once daily, n = 7): 6 | Number of patients to whom administration was discontinued according to the administration discontinuating criteria ([1]; 3.0 mg once daily, n = 7): 0 | Number of patients who received platelet transfusion ([1]; 3.0 mg once daily, n = 7): 1 | Endpoint 2: Number of patients who had a platelet count during the trial that increased by 2 × 10^4/μL or more from the count before initiation of administration and reached to 5 × 10^4/μL or higher ([1]; 4.0 mg once daily, n = 8): 7 | Number of patients to whom administration was discontinued according to the administration discontinuating criteria ([1]; 4.0 mg once daily, n = 8): 2 | Number of patients who received platelet transfusion ([1]; 4.0 mg once daily, n = 8): 1 | efficacy at each dose ([1]; all doses (2.0, 2.5, 3.0 and 4.0 mg)): all doses showed the efficacy | patients who had a platelet count of higher than 20×10^4/μL during the observation period ([1]; daily dose 2.0, 2.5, 3.0 and 4.0 mg): None | maximum platelet count of patients to whom administration was discontinued according to the criteria ([1]; groups of daily dose 2 mg, 2.5 mg and 4.0 mg, vs patients who received the drug for 7 days): lower than that of patients who received the drug for 7 days
